From patent publication US20160257697A1, “THIOPHENE-SUBSTITUTED TETRACYCLIC COMPOUNDS AND METHODS OFUSE THEREOF FOR THE TREATMENT OF VIRAL DISEASES” (priority 2013, published 2016)
Read-outs that look alike come from different tables or passages of the source.

Experiments:
Assay in all cases: microbe, parasite or virus in culture
Type in all cases: cell-based, Hepatitis C virus (HCV)
Conditions in all cases: Replicon Assay A
HCV replicon 2B = tested on: HCV replicon 2B
Procedure, shortened: (§1)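 HCV replicon RNA levels were quantified by TaqMan RT-PCR after 3-day compound exposure (0.5% DMSO, 5% FBS). Cyclophilin RNA, co-amplified in the same reaction, served as endogenous control; Ct values were converted to RNA amounts using linear regression standard curves.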

HCV replicon 1AY93H = tested on: HCV replicon 1AY93H
Procedure, shortened: as §1

HCV replicon 1A = tested on: HCV replicon 1A
Procedure, shortened: as §1

[1] = read-out: 1A Y93H IC50, replicon 1AY93H
[2] = Hepatitis C virus, read-out: 2B IC50 (nM), replicon 2B
[3] = Hepatitis C virus, read-out: 1A Y93H IC50 (nM), replicon 1AY93H
[4] = read-out: 2B IC50, HCV replicon 2B
[5] = read-out: 1A Y93H IC50, HCV replicon 1A Y93H
[6] = Hepatitis C virus, read-out: 2B IC50, HCV replicon 2B
[7] = Hepatitis C virus, read-out: 1A Y93H IC50, HCV replicon 1A Y93H
[8] = Hepatitis C virus, HCV replicon 1A

## COC(=O)NC(C(=O)N1CCC[C@H]1c1ncc(-c2ccc3c(c2)cc2n3C(c3ccc(C4CC4)s3)Oc3cc(-c4cnc([C@@H]5CCCN5C(=O)[C@@H](NC(=O)OC)C(C)C)[nH]4)cc(F)c3-2)[nH]1)C1CCOC(C)(C)C1 (single isomer, unassigned) [Compound 221]
HCV replicon 2B; read-out: 2B IC50, replicon 2B
  IC50: 0.21 nM
HCV replicon 1AY93H; [1]
  IC50: 0.18 nM
HCV replicon 1A; replicon 1A
  IC50: 0.0022 nM

## COC(=O)NC(C(=O)N1CCC[C@H]1c1ncc(-c2cc(F)c3c(c2)OC(c2ccc(C4CC4)s2)n2c-3cc3cc(-c4cnc([C@@H]5C[C@H]6C[C@H]6N5C(=O)[C@@H](NC(=O)OC)C(C)C)[nH]4)ccc32)[nH]1)C(C)(C)F (single isomer, unassigned) [Compound 98]
HCV replicon 2B; [2]
  IC50: 2.16 nM
HCV replicon 1AY93H; [1]
  IC50: 0.06 nM
HCV replicon 1A; replicon 1A
  IC50: 0.0011 nM

## COCCc1ccc(C2Oc3cc(-c4cnc([C@@H]5CCCN5C(=O)[C@@H](NC(=O)OC)C(C)C)[nH]4)cc(F)c3-c3cc4cc(-c5cnc([C@@H]6CCCN6C(=O)[C@@H](NC(=O)OC)C(C)C)[nH]5)ccc4n32)s1 (single isomer, unassigned) [Compound 81]
HCV replicon 2B; [2]
  IC50: 1.32 nM
HCV replicon 1AY93H; [3]
  IC50: 0.41 nM
HCV replicon 1A; Hepatitis C virus, replicon 1A
  IC50: 0.0014 nM

## COCc1ccc(C2Oc3cc(-c4cnc([C@@H]5CCCN5C(=O)[C@@H](NC(=O)OC)C(C)C)[nH]4)cc(F)c3-c3cc4cc(-c5cnc([C@@H]6CCCN6C(=O)[C@@H](NC(=O)OC)[C@@H]6C[C@@H](C)O[C@@H](C)C6)[nH]5)ccc4n32)s1 (single isomer, unassigned) [Compound 533]
HCV replicon 2B; [4]
  IC50: 0.429 nM
HCV replicon 1AY93H; [5]
  IC50: 0.0913 nM
HCV replicon 1A; HCV replicon 1A
  IC50: 0.00373 nM

## COC(=O)N[C@H](C(=O)N1CCC[C@H]1c1ncc(-c2ccc3c(c2)OC(c2cc4sccc4s2)n2c-3cc3cc(-c4c[nH]c([C@@H]5C[C@H]6C[C@H]6N5C(=O)[C@@H](NC(=O)OC)C(C)C)n4)ccc32)[nH]1)C(C)C (single isomer, unassigned) [Compound 718]
HCV replicon 2B; [4]
  IC50: 0.82 nM
HCV replicon 1AY93H; [5]
  IC50: 0.11 nM
HCV replicon 1A; HCV replicon 1A
  IC50: 0.0024 nM

## CCc1ccc(C2Oc3cc(-c4cnc([C@@H]5CCCN5C(=O)[C@@H](NC(=O)OC)C(C)C)[nH]4)cc(F)c3-c3cc4cc(-c5cnc([C@@H]6C[C@H]7C[C@H]7N6C(=O)C(NC(=O)OC)C6CCOC(C)(C)C6)[nH]5)ccc4n32)s1 (single isomer, unassigned) [Compound 197]
HCV replicon 2B; read-out: 2B IC50, replicon 2B
  IC50: 0.47 nM
HCV replicon 1AY93H; [1]
  IC50: 0.1 nM
HCV replicon 1A; replicon 1A
  IC50: 0.0021 nM

## CCN(CC)[C@@H](C(=O)N1C[C@H](F)C[C@H]1c1nc(-c2ccc3c(c2)OC(c2ccc(Cl)s2)n2c-3cc3cc(-c4c[nH]c([C@@H]5C[C@@H](F)CN5C(=O)[C@@H](c5ccccc5)N(CC)CC)n4)ccc32)c[nH]1)c1ccccc1 (mixture of isomers) [Compound 732]
HCV replicon 2B; [6]
  IC50: 12.5 nM
HCV replicon 1AY93H; [7]
  IC50: 0.4 nM
HCV replicon 1A; [8]
  IC50: 0.16 nM

## COC(=O)N[C@H](C(=O)N1CCC[C@H]1c1ncc(-c2ccc3c(c2)OC(c2ccc(C4CC4)s2)n2c-3cc3cc(-c4cnc([C@@H]5CCCN5C(=O)[C@@H](NC(=O)OC)C(C)C)[nH]4)ccc32)[nH]1)C(C)C (single isomer, unassigned) [Compound 703]
HCV replicon 2B; [4]
  IC50: 0.12 nM
HCV replicon 1AY93H; [7]
  IC50: 0.26 nM
HCV replicon 1A; HCV replicon 1A
  IC50: 0.03 nM

## CCc1ccc(C2Oc3cc(-c4cnc([C@@H]5CCCN5C(=O)C(NC(=O)OC)C5C[C@@H](C)O[C@@H](C)C5)[nH]4)cc(F)c3-c3cc4cc(-c5cnc([C@@H]6CCCN6C(=O)C(NC(=O)OC)C6C[C@@H](C)O[C@@H](C)C6)[nH]5)ccc4n32)s1 (single isomer, unassigned) [Compound 299]
HCV replicon 2B; read-out: 2B IC50, replicon 2B
  IC50: 0.14 nM
HCV replicon 1AY93H; [1]
  IC50: 0.27 nM
HCV replicon 1A; Hepatitis C virus, replicon 1A
  IC50: 0.0017 nM

## COC(=O)NC(C(=O)N1CCC[C@H]1c1ncc(-c2ccc3c(c2)cc2n3C(c3ccc(C4CC4)s3)Oc3cc(-c4cnc([C@@H]5CCCN5C(=O)[C@@H](NC(=O)OC)C5CCOCC5)[nH]4)cc(F)c3-2)[nH]1)C(C)(C)F (single isomer, unassigned) [Compound 174]
HCV replicon 2B; read-out: 2B IC50, replicon 2B
  IC50: 0.16 nM
HCV replicon 1AY93H; [1]
  IC50: 0.614 nM
HCV replicon 1A; replicon 1A
  IC50: 0.0011 nM

## COC(=O)N[C@H](C(=O)N1CCC[C@H]1c1ncc(-c2cc(F)c3c(c2)OC(c2sc(C4CC4)cc2F)n2c-3cc3cc(-c4cnc([C@@H]5CCCN5C(=O)[C@@H](NC(=O)OC)C(C)C)[nH]4)ccc32)[nH]1)C(C)C (single isomer, unassigned) [Compound 65]
HCV replicon 2B; read-out: 2B IC50, replicon 2B
  IC50: 3.6 nM
HCV replicon 1AY93H; [1]
  IC50: 3 nM
HCV replicon 1A; Hepatitis C virus, replicon 1A
  IC50: 0.0016 nM

## CCc1ccc(C2Oc3cc(-c4cnc([C@@H]5CCCN5C(=O)[C@@H](NC(=O)OC)C(C)C)[nH]4)cc(F)c3-c3cc4cc(-c5cnc([C@@H]6C[C@H]7C[C@H]7N6C(=O)C(NC(=O)OC)C6CCOC(C)(C)C6)[nH]5)ccc4n32)s1 (single isomer, unassigned) [Compound 196]
HCV replicon 2B; read-out: 2B IC50, replicon 2B
  IC50: 0.55 nM
HCV replicon 1AY93H; [1]
  IC50: 0.062 nM
HCV replicon 1A; replicon 1A
  IC50: 0.0018 nM

## COC(=O)NC(C(=O)N1CCC[C@H]1c1ncc(-c2ccc3c(c2)cc2n3C(c3cc(C)c(C)s3)Oc3cc(-c4cnc([C@@H]5CCCN5C(=O)[C@@H](NC(=O)OC)C5CCOCC5)[nH]4)cc(F)c3-2)[nH]1)C(C)(C)F (single isomer, unassigned) [Compound 129]
HCV replicon 2B; read-out: 2B IC50, replicon 2B
  IC50: 1.17 nM
HCV replicon 1AY93H; [1]
  IC50: 0.8 nM
HCV replicon 1A; replicon 1A
  IC50: 0.001 nM

## COC(=O)NC(C(=O)N1CCC[C@H]1c1ncc(-c2cc(F)c3c(c2)OC(c2ccc(C4CC4)s2)n2c-3cc3cc(-c4cnc([C@@H]5CCCN5C(=O)[C@@H](NC(=O)OC)C(C)C)[nH]4)ccc32)[nH]1)C1CCOC(C)(C)C1 (single isomer, unassigned) [Compound 217]
HCV replicon 2B; read-out: 2B IC50, replicon 2B
  IC50: 0.39 nM
HCV replicon 1AY93H; [1]
  IC50: 0.18 nM
HCV replicon 1A; replicon 1A
  IC50: 0.003 nM

## CCc1ccc(C2Oc3cc(-c4cnc([C@@H]5CCCN5C(=O)[C@@H](NC(=O)OC)C(C)C)[nH]4)ccc3-c3c(F)c4cc(-c5cnc([C@@H]6CCCN6C(=O)[C@@H](NC(=O)OC)C(C)C)[nH]5)ccc4n32)s1 (single isomer, unassigned) [Compound 603]
HCV replicon 2B; [4]
  IC50: 0.496 nM
HCV replicon 1AY93H; [5]
  IC50: 0.183 nM
HCV replicon 1A; HCV replicon 1A
  IC50: 0.0032 nM

## COC(=O)N[C@H](C(=O)N1CCC[C@H]1c1ncc(-c2cc(F)c3c(c2)OC(c2cc(C)c(C)s2)n2c-3cc3cc(-c4cnc([C@@H]5C[C@@H](F)CN5C(=O)[C@@H](NC(=O)OC)C(C)C)[nH]4)ccc32)[nH]1)C(C)C (single isomer, unassigned) [Compound 515]
HCV replicon 2B; [4]
  IC50: 18.7 nM
HCV replicon 1AY93H; [5]
  IC50: 6.54 nM
HCV replicon 1A; HCV replicon 1A
  IC50: 0.0103 nM

## CC[C@@H]1CC(C(NC(=O)OC)C(=O)N2CCC[C@H]2c2ncc(-c3ccc4c(c3)cc3n4C(c4ccc(C5CC5)s4)Oc4cc(-c5cnc([C@@H]6CCCN6C(=O)[C@@H](NC(=O)OC)C(C)C)[nH]5)cc(F)c4-3)[nH]2)C[C@H](CC)O1 (single isomer, unassigned) [Compound 290]
HCV replicon 2B; read-out: 2B IC50, replicon 2B
  IC50: 0.34 nM
HCV replicon 1AY93H; [1]
  IC50: 0.19 nM
HCV replicon 1A; replicon 1A
  IC50: 0.0011 nM

## CCN(CC)[C@@H](C(=O)N1C[C@H](F)C[C@H]1c1nc(-c2ccc3c(c2)OC(c2ccc(C4CC4)s2)n2c-3cc3cc(-c4c[nH]c([C@@H]5C[C@@H](F)CN5C(=O)[C@@H](c5ccccc5)N(CC)CC)n4)ccc32)c[nH]1)c1ccccc1 (mixture of isomers) [Compound 733]
HCV replicon 2B; [6]
  IC50: 0.063 nM
HCV replicon 1AY93H; [7]
  IC50: 0.35 nM
HCV replicon 1A; [8]
  IC50: 0.045 nM

## COC(=O)N[C@H](C(=O)N1CCC[C@H]1c1ncc(-c2ccc3c(c2)OC(c2cc4ccccc4s2)n2c-3cc3cc(-c4cnc([C@@H]5C[C@@H](F)CN5C(=O)[C@@H](NC(=O)OC)C5CCOCC5)[nH]4)ccc32)[nH]1)C(C)C (single isomer, unassigned) [Compound 628]
HCV replicon 2B; [4]
  IC50: 0.922 nM
HCV replicon 1AY93H; [5]
  IC50: 0.357 nM
HCV replicon 1A; HCV replicon 1A
  IC50: 0.00314 nM

## COC(=O)N[C@H](C(=O)N1CCC[C@H]1c1ncc(-c2cc(C)c3c(c2)OC(c2cc4c(s2)CCC4)n2c-3cc3cc(-c4cnc([C@@H]5CCCN5C(=O)[C@@H](NC(=O)OC)C5CCOCC5)[nH]4)ccc32)[nH]1)C(C)C (single isomer, unassigned) [Compound 540]
HCV replicon 2B; [6]
  IC50: 0.147 nM
HCV replicon 1AY93H; [7]
  IC50: 2.14 nM
HCV replicon 1A; [8]
  IC50: 0.00859 nM

## COC(=O)N[C@H](C(=O)N1CCC[C@H]1c1ncc(-c2cc(F)c3c(c2)OC(c2cc(C)sc2C)n2c-3cc3cc(-c4cnc([C@@H]5CCCN5C(=O)[C@@H](NC(=O)OC)C(C)C)[nH]4)ccc32)[nH]1)C(C)C (single isomer, unassigned) [Compound 319]
HCV replicon 2B; [2]
  IC50: 8.06 nM
HCV replicon 1AY93H; [3]
  IC50: 9.38 nM
HCV replicon 1A; Hepatitis C virus, replicon 1A
  IC50: 0.001 nM

## COC(=O)N[C@H](C(=O)N1CCC[C@H]1c1ncc(-c2cc(F)c3c(c2)OC(c2ccc(C4CC4)s2)n2c-3cc3cc(-c4cnc([C@@H]5CCCN5C(=O)[C@@H](NC(=O)OC)C(C)C)[nH]4)ccc32)[nH]1)C(C)C (mixture of isomers) [Compound 510]
HCV replicon 2B; [6]
  IC50: 0.0488 nM
HCV replicon 1AY93H; [7]
  IC50: 0.0979 nM
HCV replicon 1A; [8]
  IC50: 0.00793 nM

## COC(=O)NC(C(=O)N1CCC[C@H]1c1ncc(-c2ccc3c(c2)cc2n3C(c3ccc(C(C)C)s3)Oc3cc(-c4cnc([C@@H]5CCCN5C(=O)[C@@H](NC(=O)OC)C(C)C)[nH]4)cc(F)c3-2)[nH]1)C1CCOC(C)(C)C1 (single isomer, unassigned) [Compound 243]
HCV replicon 2B; read-out: 2B IC50, replicon 2B
  IC50: 6.81 nM
HCV replicon 1AY93H; [1]
  IC50: 0.87 nM
HCV replicon 1A; replicon 1A
  IC50: 0.0015 nM

## COC(=O)NC(C(=O)N1CCC[C@H]1c1ncc(-c2ccc3c(c2)cc2n3C(c3ccc(C(C)C)s3)Oc3cc(-c4cnc([C@@H]5CCCN5C(=O)[C@@H](NC(=O)OC)C(C)C)[nH]4)cc(F)c3-2)[nH]1)C1CCOC(C)(C)C1 (single isomer, unassigned) [Compound 236]
HCV replicon 2B; read-out: 2B IC50, replicon 2B
  IC50: 0.24 nM
HCV replicon 1AY93H; [1]
  IC50: 0.18 nM
HCV replicon 1A; replicon 1A
  IC50: 0.0017 nM
